From publication PMC12292862 (Biomedicines, 2025)
Converted amounts (≈) assume the structure as drawn. “Also recorded” adds a separate entry of the source.

How the values were obtained:
COX-1 = target: T1, COX-1 (Ovis aries, UniProt P05979); assay: In vitro colorimetric COX (ovine) inhibitor-screening assay, COX-1; format: biochemical; details: ovine COX-1, tested at 50, 100 and 150 µg/mL
T1 construct: purchased Cayman Chemical 760111
T1 sequence (P05979 25-600): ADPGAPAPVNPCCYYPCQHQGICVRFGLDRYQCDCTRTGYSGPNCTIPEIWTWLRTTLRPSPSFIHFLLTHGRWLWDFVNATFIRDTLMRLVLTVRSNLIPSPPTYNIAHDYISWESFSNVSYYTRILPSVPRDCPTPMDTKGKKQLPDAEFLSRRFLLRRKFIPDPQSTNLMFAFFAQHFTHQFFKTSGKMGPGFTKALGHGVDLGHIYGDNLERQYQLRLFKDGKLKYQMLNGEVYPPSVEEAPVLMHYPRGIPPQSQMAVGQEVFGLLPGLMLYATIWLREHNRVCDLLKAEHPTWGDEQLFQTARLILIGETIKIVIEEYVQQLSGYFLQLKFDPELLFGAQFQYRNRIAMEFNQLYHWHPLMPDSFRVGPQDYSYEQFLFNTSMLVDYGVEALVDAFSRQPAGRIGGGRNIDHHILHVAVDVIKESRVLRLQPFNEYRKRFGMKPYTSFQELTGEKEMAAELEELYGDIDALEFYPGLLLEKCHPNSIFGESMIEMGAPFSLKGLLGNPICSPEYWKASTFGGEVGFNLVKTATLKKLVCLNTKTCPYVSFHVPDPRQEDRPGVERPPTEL
Experimental: The test compounds’ ability to suppress COX-1 and COX-2 was evaluated using a colorimetric COX (ovine) inhibitor-screening method (Cayman Chemical, Item Number 760111). In brief, 150 μL of assay buffer, 10 μL of heme, 10 μL of enzyme (COX-1 or COX-2), and 10 μL of compound (1 mg/mL) make up the reaction mixture. In a final volume of […], the test compounds were evaluated at doses of 50, 100, and 150 μg/mL. The cyclooxygenase peroxidase component is used in the experiment. By monitoring the appearance of oxidized N, N, […] (TMPD) at 590 nm, the peroxidase activity is measured […]. […] The following formula was used to determine the % COX inhibition: The COX inhibition activity percentage is equal to (1 − T/C ×100), where T is the inhibitor well’s absorbance and C is the starting activity’s absorbance at 100% without the inhibitor well.

[1] = Cell viability and cytotoxicity (MTT assay); format: cell-based, human; details: human, WI-38 human lung fibroblast cells, WI-38 cells; for IC50: 31.25 to 1000 µg/mL
Experimental: (§1) The cell lines were obtained from VACSERA—Holding Company for Biological Products and Vaccines, Cairo, Egypt. A 96-well tissue culture plate was seeded with 1 × 10^5 cells/mL (Wl-38 cells) from the human lung fibroblast cell line, adding 100 µL per well, and incubated at 37 °C with 5% CO2 for 24 h to allow the formation of a confluent monolayer. Following incubation, the growth medium was aspirated, and the cell monolayers were washed twice with wash medium to remove residual serum. Serial two-fold dilutions of the test compound were prepared in RPMI-1640 supplemented with 2% fetal bovine serum. Each dilution (100 µL) was added to the designated wells, while three wells served as negative controls and received only maintenance medium. The plate was incubated at 37 °C for an appropriate duration, during which cellular morphology was monitored for signs of cytotoxicity, including monolayer disruption, cell rounding, shrinkage, or granulation. MTT solution (5 mg/mL in PBS) was prepared, and 20 µL was added to each well. The plate was briefly agitated at 150 rpm for 5 min and then incubated for 4 h at 37 °C to allow viable cells to metabolize MTT into insoluble formazan crystals. After incubation, the supernatant was carefully removed, and 200 µL of DMSO was added to each well to solubilize the formazan. The plates were agitated again at 150 rpm for 5 min, and the absorbance was measured at 560 nm with background subtraction at 620 nm. The resulting optical density values were directly proportional to the number of viable cells.
(§2) The information was presented as the mean ± SD of the volume difference (mL) between the control and carrageenan-treated paws. One-way analysis of variance (ANOVA) was used to analyze the experimental groups’ data, and a Tukey post hoc test was then performed. p < 0.05 was considered significant. The IC50 values were calculated using Microsoft Excel by plotting a dose–response curve between compound concentration and cell viability percentage. A linear regression or logarithmic trendline was fitted to the data points, depending on the curve behavior.

[2] = test system: WI-38 human lung fibroblast cells; assay: Cell viability and cytotoxicity (MTT assay); format: cell-based; details: WI-38 cells; morphology
Experimental: as §1, §2

Wistar rats = assay: Acute toxicity pilot study (OECD 423); format: in vivo; details: rat, i.p., 200 mg/kg
Experimental: According to OECD guidelines (Testing of Chemical Number 423), the study was carried out. In this study, mature male Wistar rats in good health were selected. After a 24 h fast, the animals were divided into groups of six. The test compounds were injected intraperitoneally at dosages ranging from 100 mg to 2000 mg per kilogram, dissolved in 2% Tween 80 saline solutions (v/v). The animals in the control groups were given just the vehicle, which was Tween 80 in 0.9% normal saline. […] Thus, 200 mg/kg (ED 50), which is considered one-tenth of the LD 50, was chosen as the anti-inflammatory dose.

[3] = test system: rat paw tissue dermal collagen; assay: Sirius Red staining of dermal collagen in paw tissue; format: in vivo; details: carrageenan-injected paw; compounds 200 mg/kg i.p., indomethacin 10 mg/kg
rat paw tissue = assay: Histomorphometry lesion scores of paw tissue sections; format: in vivo; details: vs carrageenan group; for inflammation scores: Figure 11A; for total lesion scores: Figure 11D
egg albumin = assay: Egg albumin protein denaturation inhibition assay; details: 50–1000 µg/mL; Figure 2B; result in words
Experimental: To determine the egg albumin protein denaturation inhibition assay, the previously mentioned approach was used. Egg albumin (0.2 mL), 2.8 mL of phosphate-buffered saline (pH 6.4), and 2 mL of synthesized compound solutions in various concentrations were added to 5 mL of reaction mixture for this experiment. […] The reaction solutions were heated to 37 °C for 15 min, then to 70 °C for 5 min. After cooling, the absorbance of the solutions was measured at 660 nm. The experiment was conducted in triplicate, and the percentage inhibition of denaturation of the protein was calculated using the following formula:%Inhibition = ((Absorbance Control − Absorbance Sample)/(Absorbance control)) × 100.

Structure (SMILES) | COX-1 inhibition % (mean activity) (COX-1) | viability at 31.25 µg/mL [1] | IC50 [1] | concentration above which cells shrink and lose fibroblast-like structure [2] | Ability to feed (Wistar rats) | Change in skin color (Wistar rats) | Death (Wistar rats) | Diarrhea (Wistar rats) | Drowsiness (Wistar rats) | Dyspnea (Wistar rats) | Micturition (Wistar rats) | Seizures (Wistar rats) | Weight loss (Wistar rats) | dermal collagen content and distribution (Sirius Red) [3] | inflammation scores (rat paw tissue) | total lesion scores (rat paw tissue) | inhibition of egg albumin protein denaturation (egg albumin) | also measured
NC1=NC2(CCCCCC2)n2nc(C(=O)Nc3ccc(S(N)(=O)=O)cc3)nc2N1 [Compound 1, 5′-Amino-N-(4-sulfamoylphenyl). -1′H-spiro[cycloheptane-1,7′-[1,2,4]triazolo[1,5-a][1,3,5] -triazine] -2′-carboxamide] | 70% | 99.9% | 363 mg/L (≈ 867 µM) | above 125 µg/mL | Normal | Normal | No | Present | Absent | Absent | Normal | Absent | No | normal collagen quantity and distribution; also recorded: normal in both quantity and organization | significantly reduced inflammation scores | reduced total lesion scores significantly |  | Death (Wistar rats; listed as compound 1, 200 mg/kg): no mortality
CC1(C)CC(=O)CC2(C1)N=C(N)Nc1nc(C(=O)Nc3ccc(S(N)(=O)=O)cc3)nn12 (stereo not drawn) [Compound 2] | 69% | 99.9% | 328 mg/L (≈ 734 µM) | above 125 µg/mL | Normal | Normal | No | Present | Absent | Absent | Normal | Absent | No | normal dermal collagen; also recorded: normal appearance and distribution |  |  | moderate inhibition; also recorded: superior percentage inhibition of protein denaturation | Death (Wistar rats; listed as compound 2, 200 mg/kg): no mortality
NC1=NC2(c3ccccc3Cc3ccccc32)n2nc(C(=O)Nc3ccc(S(N)(=O)=O)cc3)nc2N1 [Compound 3] | 70% | 99.8% | 148 mg/L (≈ 296 µM) | above 62.5 µg/mL | Normal | Normal | No | Present | Absent | Absent | Normal | Absent | No | normal dermal collagenous fibers without any lesion; also recorded: complete restoration of normal dermal collagen | approaching those of the normal control group | reduced total lesion scores significantly; also recorded: comparable to the normal control group | highest protective effect; also recorded: superior percentage inhibition of protein denaturation | Death (Wistar rats; listed as compound 3, 200 mg/kg): no mortality; inflammation scores (rat paw tissue; listed as compound 3): significantly reduced inflammation scores; edema scores (rat paw tissue; Figure 11B): comparable to those of the control group; vascular alteration scores (rat paw tissue; Figure 11C): near-normal levels
